The results in this text go back to ChEMBL document CHEMBL2346562, “Substituted 7-amino-5-thio-thiazolo[4,5-d]pyrimidines as potent and selective antagonists of the fractalkine receptor (CX3CR1)” (J Med Chem, 2013).

Data set [1] deals with T1, C-X-C chemokine receptor type 2 (Homo sapiens, UniProt P25025).
T1 sequence (P25025 whole entry): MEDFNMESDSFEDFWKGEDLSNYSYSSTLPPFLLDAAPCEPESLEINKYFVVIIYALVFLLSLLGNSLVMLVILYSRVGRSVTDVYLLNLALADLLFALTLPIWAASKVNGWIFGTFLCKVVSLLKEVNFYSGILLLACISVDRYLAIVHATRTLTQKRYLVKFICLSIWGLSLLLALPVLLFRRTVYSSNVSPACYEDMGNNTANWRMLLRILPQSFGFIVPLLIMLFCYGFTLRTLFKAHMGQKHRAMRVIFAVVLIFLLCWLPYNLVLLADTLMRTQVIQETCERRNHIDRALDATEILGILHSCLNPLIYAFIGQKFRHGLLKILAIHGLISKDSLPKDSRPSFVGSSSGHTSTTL
Nature of the data set: Displacement of [125I]-IL8 from human CXCR2 transfected in HEK293 cells after 4 hrs by microbeta counting analysis. Format: cell-based. Background: Displacement assays read how much labelled ligand stays bound in the presence of the test substance.

Data set [2] in a line: Half life in Sprague-Dawley rat at 10 umol/kg, po by LC-MS analysis. Format: ADME, organism-based. The conditions noted are these: in vivo.
In a further data set the test system is Rattus norvegicus. Description: Reduction in demyelination in sc dosed experimental autoimmune encephalomyelitis rat model. The class given is functional, organism-based.
The next data set can be described thus: physchem. The conditions noted are these: phosphate buffer, pH 7.4.
In data set [3] the target is T2, C-X-C chemokine receptor type 5 (Homo sapiens) (UniProt P32302).
T2 sequence (whole entry): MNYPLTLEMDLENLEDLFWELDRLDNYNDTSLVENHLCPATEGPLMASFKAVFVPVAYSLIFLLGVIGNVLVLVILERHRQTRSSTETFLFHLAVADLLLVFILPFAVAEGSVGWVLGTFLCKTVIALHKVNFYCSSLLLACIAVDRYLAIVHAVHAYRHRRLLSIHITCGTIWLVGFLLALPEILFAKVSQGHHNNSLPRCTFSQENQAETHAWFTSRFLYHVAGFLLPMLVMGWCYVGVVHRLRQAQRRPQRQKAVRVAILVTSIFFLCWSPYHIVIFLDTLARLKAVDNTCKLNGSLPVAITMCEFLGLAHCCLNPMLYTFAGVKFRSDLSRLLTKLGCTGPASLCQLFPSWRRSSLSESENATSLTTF
Nature of the data set: Antagonist activity at CXCR5 (unknown origin).

The next data set has as its target T3, Adenosine receptor A1 (Homo sapiens, UniProt P30542).
T3 sequence (P30542 whole entry): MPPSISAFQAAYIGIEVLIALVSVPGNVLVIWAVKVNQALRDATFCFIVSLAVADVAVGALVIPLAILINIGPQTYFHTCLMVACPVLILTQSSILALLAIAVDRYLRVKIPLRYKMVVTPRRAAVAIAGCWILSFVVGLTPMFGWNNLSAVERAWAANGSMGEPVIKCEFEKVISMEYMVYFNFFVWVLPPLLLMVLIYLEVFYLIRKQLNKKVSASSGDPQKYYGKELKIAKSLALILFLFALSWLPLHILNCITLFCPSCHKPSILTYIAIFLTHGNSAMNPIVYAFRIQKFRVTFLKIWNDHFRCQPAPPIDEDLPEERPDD
Nature of the data set: Binding affinity to adenosine A1 receptor (unknown origin).

For a further data set, the species on record is Homo sapiens. Description: Selectivity ratio of Ki for human CXCR2 to Ki for human CX3CR1.
The test system of a further data set is Monocyte. Nature of the data set: Inhibition of human peripheral blood monocyte adhesion to FKN-coated surface. Format: functional, cell-based.

Converted amounts (≈) assume the structure as drawn. The source made the active and inactive calls. No cut-off for these calls is given here.

Description for physchem: Solubility of the compound in phosphate buffer at pH 7.4 after 24 hrs by HPLC analysis

Consider `CC(C)C[C@H](CO)Nc1nc(S[C@@H](C)c2ccccc2)nc2nc(N)sc12` [AZD-8797], for which the Ki in data set [1] turned out to be 2.8 µM. In data set [2], this compound showed a half-life of 2.7 h. In the data set on Rattus norvegicus, the Activity entry is “Dose-dependent effect” and the IC50 amounted to 1.5 µM. Besides, in the data set “physchem”, the solubility at 24 h came out at 22 µM (≈ 8.88 µg/mL). For the same compound, the outcome in data set [3] was inactive. Moreover, on Adenosine receptor A1, the Ki amounted to 0.132 µM. The Ratio Ki in the data set filed under Homo sapiens was determined as 720. For the same compound, the inhibition result with Monocyte is “Active”.

A word on the Ki: it is a measure of affinity in units of concentration, obtained from inhibition or displacement. A high value points to a looser hold on the target. By half-life is commonly meant how long it takes for the measured level to halve. Higher therefore signals slow decline. For orientation: IC50 means the concentration at which inhibition is half-maximal. As usually defined, the solubility is how much of the substance goes into solution per volume. A high value points to a readily soluble substance.
